Results taken from patent US9801898B2, “Glutamate dehydrogenase 1 inhibitors and methods of treating cancer” (Emory University, priority 2015, dated 2017).
“Also recorded” adds a separate entry of the source.

Assays:
[1] = target: T1, 6-phosphogluconate dehydrogenase (6PGD) (Homo sapiens, UniProt P52209); test: 6PGD enzyme activity in vitro; format: biochemical
T1 sequence (P52209 1-483): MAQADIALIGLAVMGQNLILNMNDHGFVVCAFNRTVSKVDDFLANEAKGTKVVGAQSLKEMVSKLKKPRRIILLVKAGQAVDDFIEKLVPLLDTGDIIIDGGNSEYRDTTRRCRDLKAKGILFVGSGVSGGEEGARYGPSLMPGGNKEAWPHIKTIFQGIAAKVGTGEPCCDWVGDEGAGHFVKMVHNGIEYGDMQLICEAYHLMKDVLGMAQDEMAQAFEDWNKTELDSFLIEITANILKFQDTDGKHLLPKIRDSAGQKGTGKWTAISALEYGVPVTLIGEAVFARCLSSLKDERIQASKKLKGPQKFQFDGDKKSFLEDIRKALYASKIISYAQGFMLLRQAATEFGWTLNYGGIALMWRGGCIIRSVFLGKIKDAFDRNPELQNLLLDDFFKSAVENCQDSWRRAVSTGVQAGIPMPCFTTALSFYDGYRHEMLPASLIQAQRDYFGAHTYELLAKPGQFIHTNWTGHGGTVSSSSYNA

fumarate hydratase (FH) = target: T2, fumarate hydratase (FH) (Homo sapiens, UniProt P07954); test: FH enzyme activity in vitro; format: biochemical
T2 sequence (P07954 45-510): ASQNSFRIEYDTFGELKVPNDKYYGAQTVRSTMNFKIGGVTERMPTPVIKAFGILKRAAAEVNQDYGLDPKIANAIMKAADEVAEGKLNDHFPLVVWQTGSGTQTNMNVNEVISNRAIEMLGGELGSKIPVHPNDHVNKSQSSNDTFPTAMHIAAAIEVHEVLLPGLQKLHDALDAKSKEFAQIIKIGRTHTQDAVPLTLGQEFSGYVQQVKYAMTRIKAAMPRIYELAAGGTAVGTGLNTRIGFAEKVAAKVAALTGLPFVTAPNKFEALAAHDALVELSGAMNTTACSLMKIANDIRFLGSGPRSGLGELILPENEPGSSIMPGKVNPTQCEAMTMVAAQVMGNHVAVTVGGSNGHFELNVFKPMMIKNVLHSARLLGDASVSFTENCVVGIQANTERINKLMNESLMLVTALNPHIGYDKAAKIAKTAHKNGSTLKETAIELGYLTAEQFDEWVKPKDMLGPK

GDH1 [2] = target: T3, GDH1 (Homo sapiens, UniProt P00367); settings: cited from earlier work
[3] = test system: H1299 and MDA-MB231 cells; test: Fumarate, GPx activity and ROS levels in R162-treated cells; format: cell-based, human
Description: (§1) GDH1 enzyme activity assay was performed. Total cell lysates (20 microg) or 100 ng of purified GDH1 was added to a reaction mixture containing 50 mM triethanolamine (pH 8.0), 100 mM ammoniumacetate, 100 microM NADPH, and 2.6 mM EDTA. […] GPx, SOD, TRX, GSR, and CAT enzyme activities were determined by using commercially available kits from Biovision according to the manufacturer's instructions. PRX enzyme activity was assayed by coupling its activity to oxidation of NADPH via TRXs.

[4] = test system: GDH1 knockdown cells (H1299, MDA-MB231); test: Rescue experiments in GDH1 knockdown cancer cells; format: cell-based, human
Description: (§2) Adherent cells or leukemia cells were seeded in six-well plate, and cell numbers were determined by trypan blue exclusion using TC10 automated cell counter (Bio-Rad).

[5] = test system: H1299 GDH1 knockdown xenograft; test: NAC rescue in H1299 GDH1 knockdown xenograft mice; format: in vivo; settings: NAC 10 mg/ml drinking water
Description: Nude mice (athymic nu/nu, female, 4-6 weeks old; Harlan) were subcutaneously injected with H1299 cells harboring empty vector on the left flank, and cells with stable knockdown of GDH1 on the right flank, respectively. For the NAC rescue experiment, mice of the NAC rescue group were treated with NAC drinking water at 10 mg/ml from 3 days after H1299-GDH1 shRNA cells injection for 42 days. […] Tumor growth was recorded by measurement of two perpendicular diameters of the tumors, and tumor size was calculated. The tumors were harvested and weighed at the experimental endpoint.
Nude mice were subcutaneously injected with control H1299 cells harboring empty vector or GDH1 knockdown cells. NAC at a concentration of 10 mg/ml was administered via drinking water to half of the mice injected with GDH1 knockdown cells.

GDH1 [6] = target: T3, GDH1; test: GDH1 enzyme activity assay with purified GDH1; format: biochemical; settings: for potency and specificity for GDH1 inhibition in comparison of purpurin, R162 and EGCG: in vitro and in cancer cells; for inhibitory effect on GDH1 enzyme activity in vitro: purified GDH1
Description: as §1

GDH1 [7] = target: T3, GDH1; test: Thermal melt shift assay; format: binding; settings: increasing concentrations of R162
Description: To examine the interaction between GDH1 and R162, a thermal melt shift assay was performed.

Cell permeability = format: in vitro ADME
mitochondrial GDH = target: T4, mitochondrial GDH (Homo sapiens, UniProt P00367); test: GDH activity in cancer cells treated with compound; format: cell-based; settings: compared with purpurin; R162 20 microM
T4 construct: GDH activity in cancer cells treated with R162 (20 microM); endogenous in cells; host or cells: cancer cells (probably H1299 and MDA-MB231)
Description: as §1

[8] = test system: H1299 and MDA-MB231 cells; test: Cell proliferation assay (cell counting); format: cell-based, human
Description: as §2

[9] = test system: human lung cancer, breast cancer, and leukemia cell lines; test: Cell viability in cancer cell lines; format: cell-based
[10] = test system: HaCaT, MRC-5 and HFF cells; test: Cell viability in control proliferating human cells; format: cell-based; settings: MRC-5, HFF control proliferative human cells
[11] = test system: primary leukemia cells from myeloid leukemia patients; test: Cell viability of primary leukemia cells; format: cell-based, human
[12] = test system: mononucleocytes in peripheral blood samples from healthy human donors; test: Cell viability of mononucleocytes from healthy donors; format: cell-based
[13] = In vivo toxicity study (hematology, histopathology); set-up: species or system mice
Description: The in vivo efficacy of R162 in the treatment of xenograft tumor mouse models was tested. For initial in vivo toxicity studies, 30 mg/kg/day of R162 was administered to mice for 30 days by intraperitoneal injection.

H1299 xenograft = H1299 xenograft nude mice, R162 treatment; format: in vivo
Description: Nude mice (athymic nu/nu, female, 4-6 weeks old; Harlan) were subcutaneously injected with H1299 cells harboring empty vector on the left flank, and cells with stable knockdown of GDH1 on the right flank, respectively. For the NAC rescue experiment, mice of the NAC rescue group were treated with NAC drinking water at 10 mg/ml from 3 days after H1299-GDH1 shRNA cells injection for 42 days. To evaluate the efficacy of R162, the drug was administered from a day after H1299 cells injection by daily intraperitoneal injection of 30 mg/kg for 35 days. Fifty percent of DMSO in PBS was as a diluent control. Tumor growth was recorded by measurement of two perpendicular diameters of the tumors, and tumor size was calculated. The tumors were harvested and weighed at the experimental endpoint. Tumor proliferation was determined by Ki-67 IHC staining.
An in vivo R162 treatment was performed using H1299-xenograft nude mice. A day after xenograft injection, mice were divided into two groups (n=8 per group) and treated with either R162 ([…]) or control DMSO for 35 days.

GPx1 [14] = target: T5, GPx1 (Homo sapiens, UniProt P07203); test: Radiometric 14C-fumarate/14C-alpha-KG-GPx1 binding assay
T5 construct: made in house; host or cells: 293T cells (transfected)
T5 sequence (P07203 1-203): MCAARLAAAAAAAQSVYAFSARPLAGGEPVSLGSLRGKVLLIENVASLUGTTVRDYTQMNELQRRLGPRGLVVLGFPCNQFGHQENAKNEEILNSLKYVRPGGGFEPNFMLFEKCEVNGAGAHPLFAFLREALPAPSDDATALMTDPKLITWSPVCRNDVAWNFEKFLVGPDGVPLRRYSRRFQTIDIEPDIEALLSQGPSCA
Source text: The beads were then washed with TBS buffer. The bead-bound GPx1 protein was eluted with 10 microg flag peptides, and radioactivity was detected by liquid scintillation counting.

GPx1 [15] = target: T5, GPx1; test: Activity of purified GPx1 in the presence of metabolites; format: biochemical; settings: physiological concentrations of metabolite; GPx1 from mammalian cells or human erythrocytes
Description: as §1
GPx activity in GDH1 knockdown cells.

GDH1 [16] = target: T3, GDH1; test: Tryptophan fluorescence binding assay; settings: purified GDH1, tryptophan fluorescence binding
Description: Purified GDH1 was incubated with increasing concentrations of purpurin.

[17] = R162 20 mg/kg/day for 35 days vs control DMSO

T3 sequence (P00367 54-558): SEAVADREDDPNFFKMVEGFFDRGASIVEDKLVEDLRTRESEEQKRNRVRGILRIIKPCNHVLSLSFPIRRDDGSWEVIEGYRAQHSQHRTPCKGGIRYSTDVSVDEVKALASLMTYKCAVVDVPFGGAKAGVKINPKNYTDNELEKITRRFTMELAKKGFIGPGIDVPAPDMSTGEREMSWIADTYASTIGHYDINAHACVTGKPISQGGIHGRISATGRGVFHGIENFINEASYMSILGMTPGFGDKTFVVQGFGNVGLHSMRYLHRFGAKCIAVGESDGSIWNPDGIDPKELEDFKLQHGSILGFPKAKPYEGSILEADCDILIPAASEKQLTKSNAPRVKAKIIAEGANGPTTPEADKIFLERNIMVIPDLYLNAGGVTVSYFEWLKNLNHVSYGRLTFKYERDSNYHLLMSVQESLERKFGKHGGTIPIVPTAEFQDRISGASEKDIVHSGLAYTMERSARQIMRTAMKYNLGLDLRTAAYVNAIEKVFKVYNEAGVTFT
T4 sequence (P00367 54-558): as above

In the case of `O=C(O[C@@H]1Cc2c(O)cc(O)cc2O[C@@H]1c1cc(O)c(O)c(O)c1)c1cc(O)c(O)c(O)c1` [EGCG, epigallocatechin gallate], the “effect on activity of 6PGD” value [1] is listed as “significantly affected activity”, the “effect on activity of FH” value (fumarate hydratase (FH)) is listed as “significantly affected activity” and the “GDH1 inhibition as reported” value (GDH1 [2]) is listed as “reported to inhibit GDH1 activity”.
In the case of `CC(=O)N[C@@H](CS)C(=O)O` [NAC, N-acetylcysteine], the “rescue of R162 effects (fumarate, GPx activity, ROS, cell proliferation)” value ([3]; R162-treated H1299 and MDA-MB231 cells) is reported as “significantly rescued”, the “rescue of increased ROS” value [4] is reported as “significantly rescued” and the “rescue of reduced cell proliferation” value [4] is reported as “significantly rescued”. For the same molecule, the “rescue of attenuated tumor growth” value [5] was “partially rescued”.
With `C=CCc1ccc2c(c1O)C(=O)c1ccccc1C2=O` [R162, 2-allyl-1-hydroxyanthracene-9,10-dione] the “mode of inhibition (Lineweaver-Burk plot)” value (GDH1 [6]; different concentrations of GDH1 substrate alpha-KG) was “mixed model inhibitor”, the “potency and specificity for GDH1 inhibition in comparison of purpurin, R162 and EGCG” value (GDH1 [6]) was “more potent and specific” and the “inhibitory effect on GDH1 enzyme activity in vitro” value (GDH1 [6]) was “potent GDH1 inhibitor”. For the same molecule, the “melting temperature (Tm) of GDH1” value (GDH1 [7]) was “raised the melting temperature (Tm) in a dose-dependent manner”, the cell permeability (Cell permeability) was “more cell-permeable than purpurin” and the “inhibitory effect on mitochondrial GDH activity in cancer cells” value (mitochondrial GDH) was “more potent inhibitory effects”. The GPx activity ([3]; H1299 and MDA-MB231 cells) was “attenuated GPx activity”, the intracellular fumarate levels ([3]; H1299 and MDA-MB231 cells) was “decreased intracellular fumarate levels” and the ROS levels ([3]; cancer cells (H1299, MDA-MB231) treated with R162) was “elevated ROS levels; also recorded: increased ROS levels”. The cell proliferation [8] was “reduced cell proliferation”, the cell viability [9] was “attenuated cell viability” and the cell viability [10] was “but not in human proliferating cells”. For the same molecule, the cell viability [11] was “decreased cell viability”, the cell viability [12] was “did not affect cell viability” and the histopathological change ([13]; 30 mg/kg/day for 30 days, intraperitoneal, vs vehicle) was “did not result in a significant histopathological change”. For the same molecule, the Basophils ([13]; mice, 30 mg/kg/day) was 0.105 ± 0.06 ×10^3/μl, the Eosinophils ([13]; mice, 30 mg/kg/day) was 0.21 ± 0.07 ×10^3/μl and the HCT ([13]; mice, 30 mg/kg/day) was 45.95 ± 3.74%. The HGB ([13]; mice, 30 mg/kg/day) was 11.1 ± 1.55 g/dL, the LYM ([13]; mice, 30 mg/kg/day) was 3.145 ± 0.10 ×10^3/μl and the MCH ([13]; mice, 30 mg/kg/day) was 13.35 ± 0.91 pg. The MCHC ([13]; mice, 30 mg/kg/day) was 24.1 ± 1.41 g/dL, the MCV ([13]; mice, 30 mg/kg/day) was 55.35 ± 0.49 fL and the MONO ([13]; mice, 30 mg/kg/day) was 0.165 ± 0.007 ×10^3/μl. The MPV ([13]; mice, 30 mg/kg/day) was 6.05 ± 0.21 fL, the NEU ([13]; mice, 30 mg/kg/day) was 1.71 ± 0.18 ×10^3/μl and the RBC ([13]; mice, 30 mg/kg/day) was 8.3 ± 0.60 ×10^6/μl. For the same molecule, the RDW ([13]; mice, 30 mg/kg/day) was 18.5 ± 0.56%, the WBC ([13]; mice, 30 mg/kg/day) was 5.33 ± 0.41 ×10^3/μl and the tumor growth (H1299 xenograft; [17]) was “significantly decreased”. The tumor masses (H1299 xenograft; [17]) was “significantly decreased” and the “GDH1 activity in resected tumors” value (H1299 xenograft; xenograft nude mice) was “effectively inhibited GDH1 activity”.
For `O=C(O)/C=C/C(=O)O` [fumarate], the “retention of 14C-labeled metabolite on GPx1” value (GPx1 [14]) was “retained on GPx1”, the Kd (GPx1 [14]; read-out: Kd value of the GPx1-fumarate interaction) was 75.5 ± 5.22 µM and the “activity of purified human GPx1” value (GPx1 [15]) was “significantly increased”.
In the case of `O=C1c2ccccc2C(=O)c2c(O)c(O)cc(O)c21` [purpurin, reference compound], the “potency and specificity for GDH1 inhibition in comparison of purpurin, R162 and EGCG” value (GDH1 [6]) is reported as “more potent and specific”, the “inhibitory effect on GDH1 enzyme activity in vitro” value (GDH1 [6]) is reported as “dramatic inhibitory effects” and the Ki (GDH1 [6]; recombinant, purified active GDH1, in vitro GDH activity assay) is reported as 1.9 ± 0.26 µM. The Kd (GDH1 [16]) was 11.5 ± 1.17 µM and the cell permeability (Cell permeability) was “not cell permeable”.
